Experimental data as given in US20220296620A1, “AGENT FOR PREVENTING OR TREATING MILD COGNITIVE IMPAIRMENT” (NATIONAL UNIVERSITY CORPORATION TOKYO MEDICAL AND DENTAL …, priority 2019, published 2022).

Experiments:
[1] = tested on: 5×FAD mice; experiment: Cognitive function analysis, Y-shaped maze score of alternation behavior; type: in vivo, mouse; conditions: tested at 6 months of age
Protocol: The administration of AAV-YAPΔC-ins61 or AAV-NINS (titer: 1×10^10 vector genomes/mL each, 1 μL) to mouse RSD (retrosplenial cortex) (depth of −2.0 mm from the bregma and 0.6 mm mediolaterally) and the subarachnoidal administration of S1P (40 nM, 0.15 μL/hr; manufactured by Sigma-Aldrich Co. LLC) or control artificial cerebrospinal fluid (aCSF) (0.15 μL/hr; manufactured by Alzet Osmotic Pressures) to the mice were performed according to the method described in the document “Yang, G. et al., Nat Protoc 5, 201-208 (2010)”. The administration of AAV-YAPΔC-ins61 or AAV-NINS to the mice was performed at 1 or 5 months of age. The administration of S1P to the mice was continuously performed for a period from 1 to 6 months of age or for a period from 5 to 6 months of age.
The normal mice (non-transgenic B6/SJL mice) or the 5×FAD mice given AAV-YAPΔC-ins61 or AAV-NINS, or S1P were tested for their exploratory behavior when aged 6 months using a Y-shaped maze (manufactured by O'HARA & Co., Ltd.) in which three arms of the same size were joined at […]
A value obtained by dividing the number of movements from the immediately preceding arm where the mouse stayed to an arm different from the immediately preceding arm where the mouse stayed by the number of movements in the arms was calculated as the rate of spontaneous alternation (score of alternation behavior; see FIG. 14).

[2] = tested on: pSer46-MARCKS in brain neurons of 5×FAD mice; experiment: pSer46-MARCKS levels of brain neurons by immunohistochemical staining; type: in vivo, mouse; conditions: 5×FAD mice given at 1 month of age, measured at 6 months of age, vs 5×FAD mice without administration (FIG. 16)
[3] = tested on: nuclear YAP in brain neurons of 5×FAD mice; experiment: Amounts of nuclear YAP in brain neurons by immunohistochemical staining; type: in vivo, mouse; conditions: 5×FAD mice given at 1 month of age, measured at 6 months of age, vs 5×FAD mice without administration (FIG. 10)
Protocol: (§1) Brain tissues were excised from the test subjects or the AD mouse models and fixed in a 4% PFA (paraformaldehyde) solution. Then, 5 µm thick paraffin sections were prepared using a microtome (manufactured by Yamato Kohki Industrial Co., Ltd.). […] Fluorescence signals derived from each primary antibody were detected using a fluorescence microscope (IX70, manufactured by Olympus Corp.) or a confocal laser scanning microscope (FV1200, manufactured by Olympus Corp.) to obtain images (specifically, YAP images, phosphorylated LATS1 serine 909 (Ser909) [pLATS1] images, images of the detected DAPI fluorescence signals derived from the cells nuclei (DAPI images), and overlaid images thereof (merged images). In the DAPI images, cells having the deformed and/or shrunk cell nuclei were evaluated as necrotic cells, and the numbers of necrotic cells in 30 fields of view (143 μm×143 μm) were measured to calculate a necrotic cell number per field of view (see the ordinates of FIGS. 5A to 5C). […]

[4] = tested on: ER in brain neurons of 5×FAD mice; experiment: In vivo imaging of ER volumes in brain neurons (ER-Tracker Red); design: species or system mouse; conditions: 5×FAD mice given at 1 month of age, measured at 6 months of age (FIGS. 13 and 15)
Protocol: The skull bones on RSD surface of normal mice (non-transgenic B6/SJL mice) or 5×FAD mice were removed using a high-speed microdrill. 1 μL of a liquid containing 100 nM amyloid-binding substance BTA1 (2-(4′-(methylamino)phenyl) benzothiazole, manufactured by Sigma-Aldrich Co. LLC) and 100 nM ER-Tracker Red (E34250, manufactured by Thermo
Fisher Scientific Inc.) was injected to RSD in the presence of 1% isoflurane (anesthetic). 4 hours later, ER-Tracker Red was imaged using an upright microscope (BX61WI, manufactured by Olympus Corp.) and a scanning laser microscope system FV1000MPE2 (manufactured by Olympus Corp.) equipped with an immersion objective lens (XLPlanN25xW, numerical aperture: 1.05) and a pulse laser (MaiTaiHP DeepSee, manufactured by Spectra-Physics, Inc.) to obtain images of detected BTA1 fluorescence signals (BTA1 images) and images of detected ER-Tracker Red fluorescence signals (ER-Tracker images). The fluorescence signal volumes of ER-Tracker Red (i.e., volumes of ER) were measured. […]

[5] = tested on: extracellular amyloid β in brain tissues of 5×FAD mice; experiment: Extracellular amyloid β levels of brain tissues by immunohistochemical staining; type: in vivo, mouse; conditions: 5×FAD mice given at 1 month of age, measured at 6 months of age, vs 5×FAD mice without administration (FIG. 11)
Protocol: as §1

CCCCCCCCCCCCC/C=C/[C@@H](O)[C@@H](N)COP(=O)(O)O [SiP, sphingosine 1-phosphate]
cognitive functions (score of alternation behavior, Y-shaped maze) ([1]; 5×FAD mice given at 1 month of age, vs 5×FAD mice without administration (FIGS. 17A and 17B)): equivalent to the ones of normal mice
cognitive functions (score of alternation behavior, Y-shaped maze) ([1]; 5×FAD mice given at 5 months of age, vs 5×FAD mice without administration (FIGS. 17C and 17D)): equivalent to the ones of normal mice
pSer46-MARCKS levels of brain neurons [2]: decreased to the levels of normal mice
amounts of nuclear YAP in brain neurons [3]: increased and/or restored to the levels of normal mice
ER dilation and instability in brain neurons [4]: significantly resolved ER dilation and instability
extracellular amyloid β levels of brain tissues [5]: lower
